Usually pIC50 stands for −log10 of the IC50, conventionally taken in molar units.

pIC50: −log10 of the molar value. Like-named read-outs stand apart in the source and are kept apart here.

In one experiment the target is ATM enzyme (human) (Homo sapiens, UniProt Q13315). Description: ATM kinase assay (HTRF, GST-cMyc-p53 substrate). It counts as biochemical. The following applies: for inhibition at 0.01 µM: C 0.01 μm (final concentration of compound); for inhibition at 0.1 µM: C 0.1 μm (final concentration of compound); for inhibition at 1 µM: C 1 μm (final concentration of compound). An outline of the steps: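 Reaction with GST-cMyc-p53 substrate started with Mg/ATP, run 30 minutes at room temperature, then stopped with EDTA. Phospho-p53 (Ser15) detected by HTRF with Eu-labelled anti-phospho antibody and d2 anti-GST, signal as 10000×(Em665/Em620). Duplicates; IC50 from a curve fit with slope factor.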
Sequence of ATM enzyme (human) (Q13315 whole entry): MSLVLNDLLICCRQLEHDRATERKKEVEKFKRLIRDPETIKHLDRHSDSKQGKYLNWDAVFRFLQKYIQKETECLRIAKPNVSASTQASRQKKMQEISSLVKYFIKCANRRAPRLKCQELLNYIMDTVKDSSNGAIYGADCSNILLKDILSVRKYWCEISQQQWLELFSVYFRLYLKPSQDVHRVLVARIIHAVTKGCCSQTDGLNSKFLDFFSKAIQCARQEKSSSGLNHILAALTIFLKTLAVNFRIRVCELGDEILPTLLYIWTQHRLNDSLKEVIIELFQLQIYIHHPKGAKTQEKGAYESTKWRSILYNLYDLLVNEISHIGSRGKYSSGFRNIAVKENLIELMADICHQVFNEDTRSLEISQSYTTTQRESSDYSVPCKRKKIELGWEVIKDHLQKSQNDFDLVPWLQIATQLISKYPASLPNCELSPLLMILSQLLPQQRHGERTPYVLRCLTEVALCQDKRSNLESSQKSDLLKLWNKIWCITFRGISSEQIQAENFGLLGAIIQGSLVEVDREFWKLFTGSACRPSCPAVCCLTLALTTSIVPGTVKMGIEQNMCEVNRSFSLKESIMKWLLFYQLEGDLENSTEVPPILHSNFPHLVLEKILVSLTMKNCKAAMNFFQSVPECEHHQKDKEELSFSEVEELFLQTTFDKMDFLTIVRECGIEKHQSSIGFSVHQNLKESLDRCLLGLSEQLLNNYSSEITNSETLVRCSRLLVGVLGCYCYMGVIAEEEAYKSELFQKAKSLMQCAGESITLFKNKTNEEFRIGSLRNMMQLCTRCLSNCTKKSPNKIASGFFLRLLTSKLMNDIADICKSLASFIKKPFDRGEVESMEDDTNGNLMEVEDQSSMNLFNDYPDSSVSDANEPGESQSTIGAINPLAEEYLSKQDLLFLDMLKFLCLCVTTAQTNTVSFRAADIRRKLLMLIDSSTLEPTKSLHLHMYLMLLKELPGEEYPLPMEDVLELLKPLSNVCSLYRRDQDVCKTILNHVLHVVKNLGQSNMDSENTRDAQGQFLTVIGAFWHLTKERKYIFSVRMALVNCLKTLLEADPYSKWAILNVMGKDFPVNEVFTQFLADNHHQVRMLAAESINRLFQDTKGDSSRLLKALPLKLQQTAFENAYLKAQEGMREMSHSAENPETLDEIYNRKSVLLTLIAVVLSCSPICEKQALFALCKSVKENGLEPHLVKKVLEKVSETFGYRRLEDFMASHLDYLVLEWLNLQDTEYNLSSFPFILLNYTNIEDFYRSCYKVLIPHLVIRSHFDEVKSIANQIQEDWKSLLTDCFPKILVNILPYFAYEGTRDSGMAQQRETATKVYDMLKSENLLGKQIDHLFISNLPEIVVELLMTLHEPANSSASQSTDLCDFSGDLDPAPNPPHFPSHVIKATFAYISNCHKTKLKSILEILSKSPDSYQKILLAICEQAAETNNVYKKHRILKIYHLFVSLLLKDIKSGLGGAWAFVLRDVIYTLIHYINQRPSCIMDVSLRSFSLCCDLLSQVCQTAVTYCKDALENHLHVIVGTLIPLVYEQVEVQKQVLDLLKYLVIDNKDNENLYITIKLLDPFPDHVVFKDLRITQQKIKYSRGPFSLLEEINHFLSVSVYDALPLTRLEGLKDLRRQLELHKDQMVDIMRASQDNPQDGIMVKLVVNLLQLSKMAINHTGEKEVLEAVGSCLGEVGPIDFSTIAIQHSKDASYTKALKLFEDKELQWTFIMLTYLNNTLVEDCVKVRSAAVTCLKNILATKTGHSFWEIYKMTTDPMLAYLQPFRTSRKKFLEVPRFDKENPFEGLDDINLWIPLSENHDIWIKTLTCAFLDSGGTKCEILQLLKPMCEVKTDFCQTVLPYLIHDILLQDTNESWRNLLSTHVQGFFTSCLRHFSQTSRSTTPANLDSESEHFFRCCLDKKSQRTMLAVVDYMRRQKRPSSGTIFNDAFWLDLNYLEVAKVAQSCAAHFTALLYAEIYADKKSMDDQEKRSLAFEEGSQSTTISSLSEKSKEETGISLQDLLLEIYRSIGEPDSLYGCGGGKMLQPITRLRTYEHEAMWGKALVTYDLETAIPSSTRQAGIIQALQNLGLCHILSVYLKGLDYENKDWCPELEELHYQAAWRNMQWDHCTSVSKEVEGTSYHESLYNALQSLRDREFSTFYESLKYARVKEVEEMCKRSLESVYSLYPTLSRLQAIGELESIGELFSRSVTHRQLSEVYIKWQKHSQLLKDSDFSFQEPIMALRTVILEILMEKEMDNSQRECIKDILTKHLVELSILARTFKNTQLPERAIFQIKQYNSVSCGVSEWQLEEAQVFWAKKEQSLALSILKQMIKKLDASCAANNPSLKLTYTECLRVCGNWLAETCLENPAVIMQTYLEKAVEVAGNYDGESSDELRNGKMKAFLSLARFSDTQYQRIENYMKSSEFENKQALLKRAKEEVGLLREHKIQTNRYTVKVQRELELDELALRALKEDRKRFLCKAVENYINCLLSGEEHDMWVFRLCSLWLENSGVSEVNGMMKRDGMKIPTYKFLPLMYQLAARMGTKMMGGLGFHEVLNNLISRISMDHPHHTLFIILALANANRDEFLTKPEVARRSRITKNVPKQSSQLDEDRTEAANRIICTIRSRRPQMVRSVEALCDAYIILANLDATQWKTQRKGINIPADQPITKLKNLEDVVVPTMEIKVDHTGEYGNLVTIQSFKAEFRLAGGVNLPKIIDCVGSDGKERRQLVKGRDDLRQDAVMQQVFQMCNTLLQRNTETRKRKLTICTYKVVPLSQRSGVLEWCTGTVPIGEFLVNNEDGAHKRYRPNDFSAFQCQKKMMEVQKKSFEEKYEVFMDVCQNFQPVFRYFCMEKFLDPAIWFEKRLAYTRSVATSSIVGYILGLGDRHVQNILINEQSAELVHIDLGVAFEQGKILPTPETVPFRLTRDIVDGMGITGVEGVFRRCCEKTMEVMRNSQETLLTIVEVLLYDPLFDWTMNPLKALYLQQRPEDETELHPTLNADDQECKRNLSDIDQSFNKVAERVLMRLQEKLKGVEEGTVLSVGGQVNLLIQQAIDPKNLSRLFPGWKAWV
(In general: Time-resolved FRET reads energy transfer from a long-lived donor to a nearby acceptor.)

The subject of experiment [1] is human colon cancer cell SW620. Briefly: MTT assay, growth of SW620 cells, compounds combined with CPT-11. It counts as cell-based. The following applies: for pIC50: Homo sapiens, SW-620, 120 h, combined with CPT-11 (205 nM medium), 5 days, MTT. An outline of the steps:
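SW620 cells in RPMI 1640/10% FBS were exposed to 8-point compound dilutions (top 10 or 1 μM, 1% DMSO final) plus CPT-11 (205 nM in added medium) for 5 days at 37 °C. Viability by MTT (0.5 mg/mL, 4 h) absorbance; IC50 from sigmoidal fit.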
(In general: Formazan colour is commonly taken as a measure of viable cells.)

In experiment [2] the test system is human breast cancer cell MDA-MB-468. Briefly: MTT assay, growth of MDA-MB-468 cells. To be noted: for pIC50: Homo sapiens, MDA-MB-468, 168 h, 7 days, MTT. It counts as cell-based. Summed up: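 MDA-MB-468 cells in RPMI 1640 with 10% FBS were exposed to 8-point compound dilutions (final DMSO 1%) for 7 days at 37 °C, with drug-containing medium renewed on day 4. Viability was read by MTT (0.5 mg/mL, 4 h) absorbance at 552/630/690 nm. IC50 came from a sigmoidal dose-response fit.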

Where [3] appears, read: 0.5 h, C 0.001 μm (final concentration of compound), read-out: Inh (%) of ATM kinase.
Setting [4] is: 0.5 h, read-out: Inh (%) of ATM kinase.

On to `C[C@@H]1CN(c2nnc3cnc4ccc(-c5ccc(OCCCN(C)C)c(C(F)(F)F)c5)cc4n23)C[C@H](C)N1C` [Example 57, N,N-dimethyl-3-(2-(trifluoromethyl)-4-(1-((3S,5R)-3,4,5-trimethylpiperazin-1-yl)-[1,2,4]triazolo[4,3-a]quinoxalin-8-yl)phenoxy)propan-1-amine], for which the inhibition at 0.001 µM at ATM enzyme (human) (setting [3]) was found to be 60%. In addition, on ATM enzyme (human) (setting [4]), the inhibition at 0.01 µM came to 98%, the inhibition at 0.1 µM was found to be 100% and the inhibition at 1 µM is 100%. The inhibition at 0.001 µM on ATM enzyme (human) (at 1 nM, read-out: inhibitory effect on ATM kinase) is above 50%. Moreover, the pIC50 in experiment [1] is 7.93. The “inhibitory effect on the growth of SW620 cells (in words)” value in experiment [1] (MTT assay, combined with CPT-11) is listed as “comparable to AZD0156”. Besides, the pIC50 in experiment [2] is 7.83. Also, the “inhibitory effect on the growth of MDA-MB-468 cells (in words)” value in experiment [2] (MTT assay) was “comparable to AZD0156”.

Turning to `C[C@@H]1CN(c2nnc3cnc4ccc(-c5ccc(N6CCC(N(C)C)CC6)cc5)cc4n23)C[C@H](C)N1C` [Example 58, N,N-dimethyl-1-(4-(1-((3S,5R)-3,4,5-trimethylpiperazin-1-yl)-[1,2,4]triazolo[4,3-a]quinoxalin-8-yl)phenyl)piperidin-4-amine], the inhibition at 0.001 µM on ATM enzyme (human) (setting [3]) is 38%. For the same compound, on ATM enzyme (human) (setting [4]), the inhibition at 0.01 µM stood at 89%, the inhibition at 0.1 µM was found to be 100% and the inhibition at 1 µM turned out to be 100%. In addition, the pIC50 in experiment [1] is 7.32. In addition, the pIC50 in experiment [2] is 7.16.

Turning to `CN(C)C1CCN(c2ccc(-c3ccc4ncc5nnc(N6CCC(N(C)C)CC6)n5c4c3)cc2)CC1` [Example 64, 1-(4-(1-(4-(dimethylamino)piperidin-1-yl)-[1,2,4]triazolo[4,3-a]quinoxalin-8-yl)phenyl)-N,N-dimethylpiperidin-4-amine], on ATM enzyme (human) (setting [4]), the inhibition at 1 µM was 98%. For the same compound, the pIC50 in experiment [1] and in experiment [2] was below 5.00 in each case.

Consider `CNC1CCN(c2ccc(-c3ccc4ncc5nnc(CN6CCOCC6)n5c4c3)cc2)CC1` [Example 66, N-methyl-1-(4-(1-(morpholinomethyl)-[1,2,4]triazolo[4,3-a]quinoxalin-8-yl)phenyl)piperidin-4-amine], for which, at ATM enzyme (human) (setting [4]), the inhibition at 1 µM came to 100%. The pIC50 is 6.23 in experiment [1] and 6.37 in experiment [2].

Take `c1ccc(-c2cc3c(cn2)ncc2nnc(C4CCOCC4)n23)cc1` [Example 67, 8-phenyl-1-(tetrahydro-2H-pyran-4-yl)pyrido[3,4-e][1,2,4]triazolo[4,3-a]pyrazine]: on ATM enzyme (human) (setting [4]), the inhibition at 1 µM was determined as 19%. Moreover, the pIC50 in experiment [1] and in experiment [2] was below 4.00 each time.

Regarding `CN(C)Cc1ccc(-c2cc3c(cn2)ncc2nnc(C4CCOCC4)n23)cc1` [Example 68, N,N-dimethyl-1-(4-(1-(tetrahydro-2H-pyran-4-yl)pyrido[3,4-e][1,2,4]triazolo[4,3-a]pyrazin-8-yl)phenyl)methanamine], on ATM enzyme (human) (setting [4]), the inhibition at 1 µM is 0%. The pIC50 in experiment [1] and in experiment [2] was below 4.00 each time.

For the compound `CNC1CCN(c2ccc(-c3cc4c(cn3)ncc3nnc(C5CCOCC5)n34)cc2)CC1` [Example 70, N-methyl-1-(4-(1-(tetrahydropyran-4-yl)pyrido[3,4-e][1,2,4]triazolo[4,3-a]pyrazin-8-yl)phenyl)piperidin-4-amine], the inhibition at 1 µM at ATM enzyme (human) (setting [4]) amounted to 4%. In addition, the pIC50 in experiment [1] is below 5.00; in experiment [2] it was below 4.00.

On to `CN(C)C1CCN(c2ccc(-c3cc4c(cn3)ncc3nnc(C5CCOCC5)n34)cc2)CC1` [Example 71, N,N-dimethyl-1-(4-(1-(tetrahydro-2H-pyran-4-yl)pyrido[3,4-e][1,2,4]triazolo[4,3-a]pyrazin-8-yl)phenyl)piperidin-4-amine], for which the inhibition at 1 µM at ATM enzyme (human) (setting [4]) came out at 19%. In addition, the pIC50 in experiment [1] and in experiment [2] was below 4.00 each time.

In the case of `CN(C)C1CCN(c2ccc(-c3ccc4ncc5nnc(C6CCOCC6)n5c4n3)cc2)CC1` [Example 72, N,N-dimethyl-1-(4-(9-(tetrahydro-2H-pyran-4-yl)pyrido[3,2-e][1,2,4]triazolo[4,3-a]pyrazin-2-yl)phenyl)piperidin-4-amine], on ATM enzyme (human) (setting [3]), the inhibition at 0.001 µM was found to be 39%. Besides, at ATM enzyme (human) (setting [4]), the inhibition at 0.01 µM was 82%, the inhibition at 0.1 µM was 97% and the inhibition at 1 µM turned out to be 99%. Also, the pIC50 in experiment [1] is 7.20. The same compound had a pIC50 in experiment [2] of 6.99.

For the compound `NC1CCN(c2ccc(-c3ccc4ncc5nnc(C6CCOCC6)n5c4n3)cc2)CC1` [Example 73, 1-(4-(9-(tetrahydro-2H-pyran-4-yl)pyrido[3,2-e][1,2,4]triazolo[4,3-a]pyrazin-2-yl)phenyl)piperidin-4-amine], the inhibition at 1 µM at ATM enzyme (human) (setting [4]) is 100%. Also, the pIC50 is 6.72 in experiment [1] and 6.68 in experiment [2].

In the case of `CNC1CCN(c2ccc(-c3ccc4ncc5nnc(C6CCOCC6)n5c4n3)cc2)CC1` [Example 74, N-methyl-1-(4-(9-(tetrahydro-2H-pyran-4-yl)pyrido[3,2-e][1,2,4]triazolo[4,3-a]pyrazin-2-yl)phenyl)piperidin-4-amine], at ATM enzyme (human) (setting [4]), the inhibition at 0.01 µM worked out at 66%, the inhibition at 0.1 µM came out at 96% and the inhibition at 1 µM was determined as 100%. In experiment [1], the negative-log IC50 (pIC50) was 6.70. Moreover, the negative logarithm of the IC50 (pIC50) in experiment [2] is 6.52.

Take `CCNC1CCN(c2ccc(-c3ccc4ncc5nnc(C6CCOCC6)n5c4n3)cc2)CC1` [Example 75, N-ethyl-1-(4-(9-(tetrahydro-2H-pyran-4-yl)pyrido[3,2-e][1,2,4]triazolo[4,3-a]pyrazin-2-yl)phenyl)piperidin-4-amine]: on ATM enzyme (human) (setting [4]), the inhibition at 1 µM came out at 100%. Moreover, the pIC50 in experiment [1] was 6.80; in experiment [2], 6.78.

Regarding `CN(C)C1CCN(c2ccc(-c3ccc4ncc5nnc(C6CCOCC6)n5c4n3)cn2)CC1` [Example 76, N,N-dimethyl-1-(5-(9-(tetrahydro-2H-pyran-4-yl)pyrido[3,2-e][1,2,4]triazolo[4,3-a]pyrazin-2-yl)pyridin-2-yl)piperidin-4-amine], the inhibition at 1 µM on ATM enzyme (human) (setting [4]) came out at 100%. Besides, the negative-log IC50 (pIC50) in experiment [1] was 6.09; in experiment [2], 6.58.

On to `CNC1CCN(c2ccc(-c3ccc4ncc5nnc(CN6CCOCC6)n5c4n3)cc2)CC1` [Example 77, N-methyl-1-(4-(9-(morpholinomethyl)pyrido[3,2-e][1,2,4]triazolo[4,3-a]pyrazin-2-yl)phenyl)piperidin-4-amine], for which the inhibition at 1 µM at ATM enzyme (human) (setting [4]) turned out to be 97%. Moreover, the pIC50 in experiment [1] is 5.99; in experiment [2], 6.03.

These data come from US10874670B2, “Substituted fused heteroaromatic compounds as kinase inhibitors and the use thereof” (IMPACT THERAPEUTICS, INC., priority 2017, dated 2020).
